From US7648973B2, “2-methylene-1α,25-dihydroxy-19,21-dinorvitamin D3 analogs and uses thereof” (Wisconsin Alumni Research Foundation, priority 2006, dated 2010)
“Also recorded” adds a separate entry of the source.

Tests used:
[1] = Intestinal calcium transport (everted gut sac); assay type: in vivo, rat; conditions: compared with 1α,25-dihydroxyvitamin D3; ip, 4 consecutive days; FIG. 3
Protocol: (§1) Male, weanling Sprague-Dawley rats were placed on Diet 11 (0.47% Ca) diet+AEK for one week followed by Diet 11 (0.02% Ca)+AEK for 3 weeks. The rats were then switched to a diet containing 0.47% Ca for one week followed by two weeks on a diet containing 0.02% Ca. Dose administration began during the last week on 0.02% calcium diet. Four consecutive ip doses were given approximately 24 hours apart. Twenty-four hours after the last dose, blood was collected from the severed neck and the concentration of serum calcium determined as a measure of bone calcium mobilization. The first 10 cm of the intestine was also collected for intestinal calcium transport analysis using the everted gut sac method. The everted gut sac assay was carried out as previously described by Martin and Deluca, Am. J. Physiol. 216, 1351 (1969); (DeLuca et al., U.S. Pat. No. 4,188,345), which are incorporated by reference as if fully set forth herein. Serum calcium was determined by atomic absorption spectrophotometry using a Perkin Elmer Model 3110 and by diluting the serum in 0.1% lanthanum chloride.
(§2) The negative control material is prepared by volumetrically measuring ethanol (<5%) and propylene glycol, mixing, and then placing in storage at 2 to 8° C.
(§3) The solution is mixed and then stored at 2 to 8° C. […]

[2] = test system: 24-hydyroxylase (24Ohase) gene promoter in ROS 17/2.8 (bone) cells; test: In vitro transcription assay (luciferase reporter); assay type: cell-based; conditions: compared with 1α,25-dihydroxyvitamin D3; FIG. 5
Protocol: Transcription activity was measured in ROS 17/2.8 (bone) cells that were stably transfected with a 24-hydyroxylase (24Ohase) gene promoter upstream of a luciferase reporter gene (Arbour et al., 1998). Cells were given a range of doses. Sixteen hours after dosing the cells were harvested and luciferase activities were measured using a luminometer. (RLU=relative luciferase units)

[3] = target: T1, full-length recombinant rat vitamin D receptor (Rattus norvegicus, UniProt P13053); test: Vitamin D receptor binding, competition with [3H]-1,25-(OH)2-D3; conditions: compared with 1α,25-dihydroxyvitamin D3; FIG. 1
T1 construct: Full-length recombinant rat receptor was expressed in E. coli BL21(DE3) Codon Plus RIL cells; histidine tag (C); made in house; host or cells: E. coli BL21(DE3) Codon Plus RIL
T1 sequence (P13053 1-423): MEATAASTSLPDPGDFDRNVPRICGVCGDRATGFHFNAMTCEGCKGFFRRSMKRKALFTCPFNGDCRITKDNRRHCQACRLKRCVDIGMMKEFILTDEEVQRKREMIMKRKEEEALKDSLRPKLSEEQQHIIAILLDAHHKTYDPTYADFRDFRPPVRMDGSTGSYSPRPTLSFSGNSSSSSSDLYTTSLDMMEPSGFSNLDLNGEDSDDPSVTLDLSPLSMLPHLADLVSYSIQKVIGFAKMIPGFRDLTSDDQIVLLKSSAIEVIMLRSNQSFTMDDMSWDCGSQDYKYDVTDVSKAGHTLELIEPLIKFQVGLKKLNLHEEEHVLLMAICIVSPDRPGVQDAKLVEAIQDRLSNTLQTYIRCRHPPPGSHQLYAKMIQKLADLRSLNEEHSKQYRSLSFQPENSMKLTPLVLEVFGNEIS
Protocol: The first system was a nickel affinity resin that utilizes the C-terminal histidine tag on this protein. The protein that was eluted from this resin was further purified using ion exchange chromatography (S-Sepharose Fast Flow). Aliquots of the purified protein were quick frozen in liquid nitrogen and stored at −80° C. until use. For use in binding assays, the protein was diluted in TEDK50 (50 mM Tris, 1.5 mM EDTA, pH 7.4, 5 mM DTT, 150 mM KCl) with 0.1% Chaps detergent. The receptor protein and ligand concentration was optimized such that no more than 20% of the added radiolabeled ligand was bound to the receptor.
The following day, 100 mcl of hydroxylapatite slurry (50%) was added to each tube and mixed at 10-minute intervals for 30 minutes. The hydroxylapaptite was collected by centrifugation and then washed three times with Tris-EDTA buffer (50 mM Tris, 1.5 mM EDTA, pH 7.4) containing 0.5% Titron X-100. After the final wash, the pellets were transferred to scintillation vials containing 4 ml of Biosafe II scintillation cocktail, mixed and placed in a scintillation counter. Total binding was determined from the tubes containing only radiolabeled ligand.

[4] = test system: HL-60 cells; test: HL-60 differentiation (nitro blue tetrazolium reduction); assay type: cell-based, human; conditions: compared with 1α,25-dihydroxyvitamin D3; FIG. 4
Protocol: The study drugs were dissolved in ethanol and the concentrations determined using UV spectrophotometry. Serial dilutions were prepared so that a range of drug concentrations could be tested without changing the final concentration of ethanol (<0.2%) present in the cell cultures.
Human promyelocytic leukemia (HL60) cells were grown in RPMI-1640 medium containing 10% fetal bovine serum. The cells were incubated at 37° C. in the presence of 5% CO2.
HL60 cells were plated at 1.2×10^5 cells/ml. Eighteen hours after plating, cells in duplicate were treated with drug. Four days later, the cells were harvested and a nitro blue tetrazolium reduction assay was performed (Collins et al., 1979; J. Exp. Med. 149:969-974). The percentage of differentiated cells was determined by counting a total of 200 cells and recording the number that contained intracellular black-blue formazan deposits. Verification of differentiation to monocytic cells was determined by measuring phagocytic activity (data not shown).

[5] = Bone calcium mobilization (serum calcium); assay type: in vivo, rat; conditions: at equimolar quantities or even at 27 times the dose of 1α,25-dihydroxyvitamin D3; ip, 4 consecutive days; FIG. 2
Protocol: as §1, §2, §3

## C=C1[C@H](O)CC(=C/C=C2\CCC[C@]3(C)[C@@H](CCCCC(C)(C)O)CC[C@@H]23)C[C@H]1O [TP-62, 2-methylene-1α,25-dihydroxy-19,21-dinorvitamin D3]
[1]
  intestinal calcium transport activity: greater or at least equal to 1α,25-dihydroxyvitamin D3
[2]
  stimulating transcription of a reporter gene stably transfected in Ros17/2.8 (bone) cells: equally active as 1α,25-dihydroxyvitamin D3
[3]
  binding to the recombinant vitamin D receptor: comparably active when compared to 1α,25-dihydroxyvitamin D3; also recorded: relatively high binding
[4]
  differentiation of HL-60 cells: more active than 1α,25-dihydroxyvitamin D3
[5]
  bone calcium mobilization: lesser activity than 1α,25-dihydroxyvitamin D3; also recorded: lesser ability to mobilize calcium from bone
